Data taken from US10406127B2, “Solid oral formulation of fenretinide” (LAURENT PHARMACEUTICALS, priority 2014, dated 2019).
Where two headings read alike, the source gives them in different places.

What was measured:
[1] = Solubility in spray-drying solvents (visually assessed); type: physicochemical
Excerpt: The solubility of Fenretinide/PVP K30 40/60% w/w mixtures was first visually assessed in various ratios of ethanol/dichloromethane. Thereafter, Spray Dryed Intermediates (SDIs) were produced from Fenretinide/PVP K30 40/60% w/w mixture solubilized at 7.5% w/v in ethanol/dichloromethane 90/10 v/v (L215-01009A), 50/50 v/v (L215-01009B) and 10/90 v/v (L215-01009C) systems for a total batch size of 15 g. The solvent was evaporated using Model GA32 Yamato® Lab Spray Dryer with the following operating parameters: 1.2 mm nozzle; about 9-15 g/min feed rate; 1.5 kg/cm^2 atomization air, and 0.35-0.55 m^3/min air flow. The inlet temperature was adjusted according to the solvent system to maintain an outlet temperature between 50-65° C.
Successive amounts of Fenretinide and PVP K30 40/60% w/w were added in 200 ml of dichloromethane until saturation of the solution. At a total solid loading of 20% w/v (40 g), the addition of Fenretinide and PVP K30 was stopped due to the increase of the solution viscosity. The solution was spray dried (lot L215-01010) with the following process parameters: 11-15 g/min feed rate; 75° C. inlet temperature; 45-48° C. outlet temperature; 0.1-0.3 MPa atomization air, and 0.40 m^3/min air flow.

[2] = fenretinide in rats; cited from earlier work

CC1=C(/C=C/C(C)=C/C=C/C(C)=C/C(=O)Nc2ccc(O)cc2)C(C)(C)CCC1 [Fenretinide, all-trans-N-(4-hydroxyphenyl) retinamide]
solubility ([1]; dichloromethane 100% with PVP K30, organic solvent or mixture, thermodynamic from solid, solubilised with PVP K30 in a ratio of 40/60 w/w, DCM 100%, read-out: solubility of Fenretinide): > 50 mg/mL
solubility ([1]; ethanol 100% with PVP K30, organic solvent or mixture, thermodynamic from solid, solubilised with PVP K30 in a ratio of 40/60 w/w, ethanol 100%, read-out: solubility of Fenretinide): ~34 mg/mL
solubility ([1]; ethanol/dichloromethane 50/50 v/v with PVP K30, organic solvent or mixture, thermodynamic from solid, solubilised with PVP K30 in a ratio of 40/60 w/w, ethanol/DCM 50/50 v/v, read-out: solubility of Fenretinide): > 50 mg/mL
solubility ([1]; mixture of methanol/dichloromethane (1:1)): very soluble
solubility ([1]; pure dichloromethane): very soluble
elimination half-life, literature data [2]: 7 to 10 h
